# Assay results published in ChEMBL document CHEMBL1201862, “PubChem BioAssay data set” (2004).
# Where “and” joins values, the source holds several entries; their conditions need not be identical. Identical values can stand only once. Calls of active or inactive are those of the source.
# Tests used:
# [1] = target: Voltage-gated inwardly rectifying potassium channel KCNH2 (Homo sapiens, UniProt Q12809); settings: Potency;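 note: confirmatory quantitative high-throughput screen measuring inhibition of hERG channel activity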
# Voltage-gated inwardly rectifying potassium channel KCNH2, sequence (Q12809 whole entry): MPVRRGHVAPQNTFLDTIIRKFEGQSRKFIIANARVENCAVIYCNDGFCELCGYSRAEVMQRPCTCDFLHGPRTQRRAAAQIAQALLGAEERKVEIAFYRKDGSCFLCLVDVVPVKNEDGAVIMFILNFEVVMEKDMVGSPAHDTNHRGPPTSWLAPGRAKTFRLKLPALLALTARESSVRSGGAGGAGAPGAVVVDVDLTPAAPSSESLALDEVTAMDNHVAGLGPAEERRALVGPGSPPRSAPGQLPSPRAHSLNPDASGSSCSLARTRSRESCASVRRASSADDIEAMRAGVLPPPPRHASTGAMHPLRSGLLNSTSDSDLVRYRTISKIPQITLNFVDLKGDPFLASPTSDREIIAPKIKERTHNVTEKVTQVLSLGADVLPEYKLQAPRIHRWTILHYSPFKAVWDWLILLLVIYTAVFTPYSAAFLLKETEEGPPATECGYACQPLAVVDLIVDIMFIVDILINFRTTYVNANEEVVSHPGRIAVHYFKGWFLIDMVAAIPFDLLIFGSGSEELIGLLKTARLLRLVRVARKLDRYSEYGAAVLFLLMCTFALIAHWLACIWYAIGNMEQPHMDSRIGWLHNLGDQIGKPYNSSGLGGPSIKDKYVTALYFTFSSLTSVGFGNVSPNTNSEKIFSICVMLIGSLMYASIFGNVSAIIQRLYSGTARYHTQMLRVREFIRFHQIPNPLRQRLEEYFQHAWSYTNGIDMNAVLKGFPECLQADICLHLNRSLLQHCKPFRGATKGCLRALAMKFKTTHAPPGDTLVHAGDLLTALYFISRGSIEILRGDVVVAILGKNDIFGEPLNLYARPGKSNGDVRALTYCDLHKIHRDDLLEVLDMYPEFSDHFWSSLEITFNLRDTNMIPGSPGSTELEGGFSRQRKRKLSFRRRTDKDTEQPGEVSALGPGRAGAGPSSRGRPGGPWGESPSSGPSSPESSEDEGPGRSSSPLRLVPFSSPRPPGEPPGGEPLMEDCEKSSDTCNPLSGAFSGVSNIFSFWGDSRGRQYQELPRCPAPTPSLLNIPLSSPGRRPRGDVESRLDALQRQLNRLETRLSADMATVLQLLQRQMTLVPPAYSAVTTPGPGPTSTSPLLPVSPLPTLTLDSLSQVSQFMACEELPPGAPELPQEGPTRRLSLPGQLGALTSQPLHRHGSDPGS
# [2] = target: T1, Aminopeptidase N (Plasmodium falciparum FcB1/Columbia, UniProt O96935); experiment: P. falciparum M1AAP inhibitors, biochemical, fluorogenic H-Leu-NHMec substrate, 1536-well (AID 1445); parameters: species or system Plasmodium falciparum 3D7, 3D7
# T1 sequence (O96935 whole entry): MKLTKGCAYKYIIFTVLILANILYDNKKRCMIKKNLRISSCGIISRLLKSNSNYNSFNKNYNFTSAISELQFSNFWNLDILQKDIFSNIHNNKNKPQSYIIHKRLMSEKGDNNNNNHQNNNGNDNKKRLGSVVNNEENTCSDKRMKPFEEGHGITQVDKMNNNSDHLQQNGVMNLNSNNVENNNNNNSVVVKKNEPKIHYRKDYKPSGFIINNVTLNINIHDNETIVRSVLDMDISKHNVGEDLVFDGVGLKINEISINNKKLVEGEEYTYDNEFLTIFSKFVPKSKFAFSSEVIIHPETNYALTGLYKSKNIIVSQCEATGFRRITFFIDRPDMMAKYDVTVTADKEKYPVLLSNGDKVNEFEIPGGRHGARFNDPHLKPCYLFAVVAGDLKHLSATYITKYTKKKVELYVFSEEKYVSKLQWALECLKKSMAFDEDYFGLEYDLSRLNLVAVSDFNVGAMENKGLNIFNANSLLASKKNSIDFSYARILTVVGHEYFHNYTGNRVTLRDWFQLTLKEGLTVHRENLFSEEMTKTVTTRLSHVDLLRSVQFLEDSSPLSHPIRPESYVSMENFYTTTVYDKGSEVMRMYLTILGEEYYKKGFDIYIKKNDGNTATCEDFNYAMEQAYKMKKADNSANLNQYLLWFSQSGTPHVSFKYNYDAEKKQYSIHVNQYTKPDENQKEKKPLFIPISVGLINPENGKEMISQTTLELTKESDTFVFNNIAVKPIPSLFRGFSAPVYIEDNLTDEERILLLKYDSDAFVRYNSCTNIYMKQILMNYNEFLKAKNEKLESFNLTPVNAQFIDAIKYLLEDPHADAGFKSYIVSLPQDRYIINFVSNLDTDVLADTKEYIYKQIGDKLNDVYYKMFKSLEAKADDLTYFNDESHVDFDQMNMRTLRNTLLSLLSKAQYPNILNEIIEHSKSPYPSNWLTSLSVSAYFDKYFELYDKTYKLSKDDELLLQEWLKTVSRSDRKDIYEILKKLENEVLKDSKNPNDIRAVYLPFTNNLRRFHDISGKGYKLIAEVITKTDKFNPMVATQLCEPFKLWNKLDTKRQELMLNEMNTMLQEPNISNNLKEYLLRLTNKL
# [3] = target: Cytochrome P450 2C9 (Homo sapiens, UniProt P11712)
# Cytochrome P450 2C9, sequence (P11712 whole entry): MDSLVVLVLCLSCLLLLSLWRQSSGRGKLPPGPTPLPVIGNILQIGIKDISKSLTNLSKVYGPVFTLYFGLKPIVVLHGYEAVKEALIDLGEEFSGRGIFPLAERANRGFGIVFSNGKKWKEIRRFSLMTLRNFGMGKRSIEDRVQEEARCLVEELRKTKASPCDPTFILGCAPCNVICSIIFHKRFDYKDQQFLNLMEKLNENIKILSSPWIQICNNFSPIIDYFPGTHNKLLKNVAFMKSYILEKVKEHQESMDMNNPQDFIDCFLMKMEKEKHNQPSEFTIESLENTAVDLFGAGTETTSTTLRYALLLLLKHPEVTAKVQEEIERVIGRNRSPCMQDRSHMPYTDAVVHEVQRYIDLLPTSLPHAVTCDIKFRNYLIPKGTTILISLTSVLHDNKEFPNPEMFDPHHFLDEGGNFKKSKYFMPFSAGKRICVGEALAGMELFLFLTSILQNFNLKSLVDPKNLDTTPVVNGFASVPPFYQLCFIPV
# [4] = target: T2, Cytochrome P450 3A4 (Homo sapiens, UniProt P08684)
# T2 sequence (P08684 whole entry): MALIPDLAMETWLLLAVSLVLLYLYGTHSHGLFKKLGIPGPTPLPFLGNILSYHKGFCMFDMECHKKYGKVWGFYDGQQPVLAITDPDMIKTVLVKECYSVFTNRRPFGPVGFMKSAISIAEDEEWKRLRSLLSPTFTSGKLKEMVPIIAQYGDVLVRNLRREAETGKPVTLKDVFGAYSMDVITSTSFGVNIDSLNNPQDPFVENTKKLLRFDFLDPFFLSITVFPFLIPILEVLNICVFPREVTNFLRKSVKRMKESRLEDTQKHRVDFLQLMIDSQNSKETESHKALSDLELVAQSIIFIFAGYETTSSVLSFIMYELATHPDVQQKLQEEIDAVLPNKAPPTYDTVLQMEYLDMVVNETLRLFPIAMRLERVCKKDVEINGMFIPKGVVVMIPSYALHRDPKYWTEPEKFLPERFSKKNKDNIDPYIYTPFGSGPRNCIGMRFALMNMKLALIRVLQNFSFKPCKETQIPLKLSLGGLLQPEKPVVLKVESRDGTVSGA
# [5] = target: Cytochrome P450 2C19 (Homo sapiens, UniProt P33261); experiment: Cytochrome panel assay with activity outcomes. Panel member name: p450-cyp2c19 Compounds with AC50 equal or less than 10 uM are considered active; type: functional; settings: read-out: AC50
# Cytochrome P450 2C19, sequence (P33261 whole entry): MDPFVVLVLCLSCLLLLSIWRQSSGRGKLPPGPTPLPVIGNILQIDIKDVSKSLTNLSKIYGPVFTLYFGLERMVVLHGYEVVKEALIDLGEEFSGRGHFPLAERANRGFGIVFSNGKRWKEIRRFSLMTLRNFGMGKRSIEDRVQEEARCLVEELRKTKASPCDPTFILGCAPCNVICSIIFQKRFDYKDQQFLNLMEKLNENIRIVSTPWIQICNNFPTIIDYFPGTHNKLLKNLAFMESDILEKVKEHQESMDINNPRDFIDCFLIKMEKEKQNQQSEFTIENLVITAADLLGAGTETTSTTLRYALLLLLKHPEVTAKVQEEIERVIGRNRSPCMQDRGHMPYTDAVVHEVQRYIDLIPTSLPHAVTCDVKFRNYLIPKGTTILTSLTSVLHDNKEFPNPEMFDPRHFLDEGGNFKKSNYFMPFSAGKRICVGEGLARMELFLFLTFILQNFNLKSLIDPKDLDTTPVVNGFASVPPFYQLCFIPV
# [6] = NIH-3T3 fibroblast cytotoxicity, dose response, cytotoxicity control, cell-based, fluorescence, Alamar Blue, secondary assay (AID 2327); type: functional;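 note: NIH-3T3 mouse fibroblasts cultured with fluconazole at 8 µg/mL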
# [7] = target: T3, Leucine aminopeptidase (Plasmodium falciparum 3D7, UniProt Q8IL11); experiment: P. falciparum M17LAP inhibitors, primary screen, biochemical, fluorogenic H-Leu-NHMec substrate, 1536-well (AID 1619); type: functional
# T3 sequence (Q8IL11 whole entry): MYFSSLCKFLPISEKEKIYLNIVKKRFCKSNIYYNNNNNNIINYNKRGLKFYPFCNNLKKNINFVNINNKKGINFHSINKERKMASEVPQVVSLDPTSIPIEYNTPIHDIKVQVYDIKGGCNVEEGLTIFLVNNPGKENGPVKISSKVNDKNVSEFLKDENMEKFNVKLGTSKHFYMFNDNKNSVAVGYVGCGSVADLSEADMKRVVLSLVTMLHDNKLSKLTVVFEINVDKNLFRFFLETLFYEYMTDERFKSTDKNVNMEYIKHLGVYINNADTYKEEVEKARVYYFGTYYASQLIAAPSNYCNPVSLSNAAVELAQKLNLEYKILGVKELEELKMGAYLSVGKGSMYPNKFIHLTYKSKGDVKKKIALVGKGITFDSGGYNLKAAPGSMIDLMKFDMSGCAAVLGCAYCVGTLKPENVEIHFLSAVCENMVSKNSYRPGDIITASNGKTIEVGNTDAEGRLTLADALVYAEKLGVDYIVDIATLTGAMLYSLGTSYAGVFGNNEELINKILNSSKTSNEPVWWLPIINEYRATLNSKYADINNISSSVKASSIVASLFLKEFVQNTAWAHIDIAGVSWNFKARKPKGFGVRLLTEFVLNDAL
# [8] = target: Genome polyprotein (dengue virus type 2, UniProt P29990); experiment: Dengue-2 NS5 methyltransferase inhibitors, primary screen, biochemical, confirmation dose response (AID 588689); type: functional
# Genome polyprotein, sequence (P29990 2492-3391 limits assumed): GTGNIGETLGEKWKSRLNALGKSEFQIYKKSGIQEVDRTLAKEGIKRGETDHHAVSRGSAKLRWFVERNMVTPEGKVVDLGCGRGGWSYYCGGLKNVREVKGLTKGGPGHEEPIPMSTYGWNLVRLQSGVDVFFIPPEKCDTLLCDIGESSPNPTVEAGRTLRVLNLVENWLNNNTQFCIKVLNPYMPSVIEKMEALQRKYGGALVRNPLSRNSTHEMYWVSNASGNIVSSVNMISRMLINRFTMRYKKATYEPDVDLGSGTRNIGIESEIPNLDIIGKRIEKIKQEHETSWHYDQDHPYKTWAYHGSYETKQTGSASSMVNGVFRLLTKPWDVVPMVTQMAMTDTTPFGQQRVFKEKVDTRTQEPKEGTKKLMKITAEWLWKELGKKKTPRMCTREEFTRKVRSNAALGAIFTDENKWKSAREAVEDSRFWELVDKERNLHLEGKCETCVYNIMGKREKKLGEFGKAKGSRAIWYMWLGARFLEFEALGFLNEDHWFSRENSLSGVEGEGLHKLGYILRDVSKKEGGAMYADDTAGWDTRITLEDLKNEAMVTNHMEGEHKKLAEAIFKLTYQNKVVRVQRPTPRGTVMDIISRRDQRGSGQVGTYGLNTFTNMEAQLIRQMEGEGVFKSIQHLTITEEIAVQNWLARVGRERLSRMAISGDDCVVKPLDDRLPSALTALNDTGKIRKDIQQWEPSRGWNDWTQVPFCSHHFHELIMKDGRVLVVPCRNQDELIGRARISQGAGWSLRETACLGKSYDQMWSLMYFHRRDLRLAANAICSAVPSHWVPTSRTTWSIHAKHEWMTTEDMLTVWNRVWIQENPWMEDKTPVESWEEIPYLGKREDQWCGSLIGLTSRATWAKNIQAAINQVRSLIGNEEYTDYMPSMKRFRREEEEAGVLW
# [9] = C. albicans growth with fluconazole, confirmation, fluorescence, retest (AID 2467); type: functional, cell-based
# [10] = target: T4, Cytochrome P450 1A2 (Homo sapiens, UniProt P05177);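 note: PubChem cytochrome P450 panel assay, CYP1A2 panel member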
# T4 sequence (P05177 whole entry): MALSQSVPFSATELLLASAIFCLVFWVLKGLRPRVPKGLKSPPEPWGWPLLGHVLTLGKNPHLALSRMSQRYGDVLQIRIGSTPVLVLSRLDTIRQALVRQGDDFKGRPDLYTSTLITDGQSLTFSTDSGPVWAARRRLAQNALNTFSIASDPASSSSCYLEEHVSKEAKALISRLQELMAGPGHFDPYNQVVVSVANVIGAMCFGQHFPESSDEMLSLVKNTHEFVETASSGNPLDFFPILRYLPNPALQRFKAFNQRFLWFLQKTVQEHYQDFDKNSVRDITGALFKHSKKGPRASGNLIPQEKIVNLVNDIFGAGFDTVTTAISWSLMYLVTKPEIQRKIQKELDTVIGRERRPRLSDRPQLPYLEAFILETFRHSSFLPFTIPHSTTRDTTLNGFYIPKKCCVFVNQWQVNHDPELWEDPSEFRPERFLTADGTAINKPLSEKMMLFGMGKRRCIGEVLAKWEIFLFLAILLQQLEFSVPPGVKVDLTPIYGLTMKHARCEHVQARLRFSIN
# [11] = cells; type: functional
# [12] = inhibitors of intracellular T. cruzi replication, confirmation, NIH3T3 host cells, beta-gal luminescence (AID 2044); type: functional, cell-based;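 note: intracellular parasites grown in NIH/3T3 mouse fibroblasts as host cells; luminescent beta-galactosidase reporter signal from transgenic T. cruzi replicating inside host cells; inhibitors lower the luminescence signal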
# [13] = Vero E6 cell cytotoxicity, dose response, cytotoxicity control for non-replicating M. tuberculosis project, secondary assay (AID 492998); type: functional, VeroE6; settings: Vero C1008
# [14] = test system: INS1; experiment: beta cell apoptosis inhibitors, cytokine rescue, dose response, luminescence, retest (AID 449756); type: functional, cell-based; settings: Rattus norvegicus;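 note: cell death triggered by IL-1 beta plus TNF-alpha plus IFN-gamma mixture; protective hits raise ATP signal compared with cytokine alone wells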
# [15] = THP-1 cell cytotoxicity, dose response, cytotoxicity control for non-replicating M. tuberculosis project (AID 489025); type: functional
# [16] = cytotoxicity toward NIH3T3 fibroblasts, dose response, counter-screen, cell-based, ATP luminescence, mouse fibroblasts (AID 2010); type: functional;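 note: cells exposed to compound for about 90 hours before reading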
# [17] = target: T2, Cytochrome P450 3A4; settings: Potency
# [18] = test system: Escherichia coli; experiment: microbe, parasite or virus in culture
# [19] = cytotoxicity in HEK-293T cells, dose response, cytotoxicity control for TCR NF-kB inhibitor project, luminescence, T-cell screen hits (AID 489026); type: functional, cell-based;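 note: cells exposed to compound about 14 hours before the viability readout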
# [20] = target: T5, Microphthalmia-associated transcription factor (Homo sapiens, UniProt O75030); experiment: TRPM1 promoter luciferase signal decrease, dose response, MITF inhibitor project, cell-based, SK-MEL-5, cherry-picked, set 3 (AID 493073); type: functional
# T5 sequence (O75030 whole entry): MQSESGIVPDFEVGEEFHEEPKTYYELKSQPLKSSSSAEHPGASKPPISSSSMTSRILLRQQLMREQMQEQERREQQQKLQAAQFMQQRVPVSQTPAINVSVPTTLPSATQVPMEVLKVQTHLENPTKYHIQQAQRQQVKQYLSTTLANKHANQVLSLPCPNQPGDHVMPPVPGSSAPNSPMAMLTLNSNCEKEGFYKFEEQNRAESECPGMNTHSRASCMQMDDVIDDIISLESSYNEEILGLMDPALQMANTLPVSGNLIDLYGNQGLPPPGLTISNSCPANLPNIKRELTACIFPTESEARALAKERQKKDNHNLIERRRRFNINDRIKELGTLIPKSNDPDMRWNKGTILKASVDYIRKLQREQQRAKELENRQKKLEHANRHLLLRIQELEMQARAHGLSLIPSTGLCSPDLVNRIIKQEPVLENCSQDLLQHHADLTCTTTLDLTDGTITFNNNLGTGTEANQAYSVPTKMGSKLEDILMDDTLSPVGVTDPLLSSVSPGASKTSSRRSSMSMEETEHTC
# [21] = test system: Vero; experiment: cells; type: functional, cell-based; settings: Chlorocebus sabaeus
# [22] = target: Glucose-6-phosphate 1-dehydrogenase (Homo sapiens, UniProt P11413); experiment: human G6PD enzyme inhibitors, dose response, selectivity assay for P. falciparum G6PD inhibitor project, biochemical, fluorescence (AID 504792); type: functional
# Glucose-6-phosphate 1-dehydrogenase, sequence (P11413 whole entry): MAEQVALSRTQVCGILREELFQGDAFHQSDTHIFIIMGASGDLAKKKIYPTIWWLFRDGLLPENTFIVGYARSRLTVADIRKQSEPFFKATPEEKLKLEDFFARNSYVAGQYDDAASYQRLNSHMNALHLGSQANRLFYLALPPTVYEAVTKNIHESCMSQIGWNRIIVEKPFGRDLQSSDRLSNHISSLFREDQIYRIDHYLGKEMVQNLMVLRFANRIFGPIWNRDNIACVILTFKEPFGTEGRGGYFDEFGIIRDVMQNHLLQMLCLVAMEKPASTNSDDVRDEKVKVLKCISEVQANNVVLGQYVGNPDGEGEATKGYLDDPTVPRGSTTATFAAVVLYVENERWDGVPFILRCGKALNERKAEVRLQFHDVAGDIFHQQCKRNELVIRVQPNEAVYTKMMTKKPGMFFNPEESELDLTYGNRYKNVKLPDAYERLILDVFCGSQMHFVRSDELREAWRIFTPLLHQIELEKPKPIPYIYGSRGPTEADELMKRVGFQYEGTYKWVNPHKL
# [23] = HEp-2 cell cytotoxicity, dose response, cytotoxicity control for RSV inhibitor project, HTS (AID 2410); type: functional; settings: human respiratory syncytial virus
# [24] = target: Large T antigen (Simian virus 40, UniProt P03070); type: functional, Betapolyomavirus macacae;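 note: Confirmatory-stage PubChem screen for compounds that inhibit SV40 T antigen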
# Large T antigen, sequence (P03070 whole entry): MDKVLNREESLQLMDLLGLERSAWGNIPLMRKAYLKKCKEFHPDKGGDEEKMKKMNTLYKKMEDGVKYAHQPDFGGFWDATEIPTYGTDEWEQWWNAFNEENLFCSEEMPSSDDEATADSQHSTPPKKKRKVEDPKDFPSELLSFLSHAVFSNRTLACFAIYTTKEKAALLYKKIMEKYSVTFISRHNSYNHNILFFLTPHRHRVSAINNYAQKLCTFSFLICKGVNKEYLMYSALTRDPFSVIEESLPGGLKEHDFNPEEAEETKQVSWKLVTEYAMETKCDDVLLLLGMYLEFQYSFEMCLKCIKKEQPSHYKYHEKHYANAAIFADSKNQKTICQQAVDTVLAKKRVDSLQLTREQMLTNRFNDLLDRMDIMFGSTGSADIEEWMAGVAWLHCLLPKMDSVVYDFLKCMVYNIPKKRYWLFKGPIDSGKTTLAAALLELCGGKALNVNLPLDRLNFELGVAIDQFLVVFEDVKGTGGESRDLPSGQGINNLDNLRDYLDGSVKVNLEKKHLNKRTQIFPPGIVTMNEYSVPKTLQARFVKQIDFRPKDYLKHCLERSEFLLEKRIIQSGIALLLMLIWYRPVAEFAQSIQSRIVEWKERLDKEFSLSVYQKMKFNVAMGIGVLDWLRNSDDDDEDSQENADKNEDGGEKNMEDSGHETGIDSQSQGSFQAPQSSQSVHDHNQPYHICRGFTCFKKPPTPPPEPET
structure (smiles),measurement,setting,value
c1ccc2c(N3CCNCC3)cccc2c1,AC50,[1],35.5 µM (inconclusive)
O=C(COc1ccccc1/C=C1\SC(=O)NC1=O)Nc1ccc(F)cc1,IC50,[2],27.5 µM (active)
COc1ccc(C(=O)Nc2ccc(F)cc2F)cc1OC,AC50,[3],inconclusive
same,AC50,[4],25.1 µM (inconclusive)
same,AC50,[5],39.8 µM (inconclusive)
Cn1cccc1C(=O)C(=O)Nc1cccc(Cl)c1Cl,AC50,[3],inconclusive
O=C(O)CSc1nc(-c2ccc(Cl)cc2)nc2c1oc1ccccc12,EC50,[6],6.56 µM (active)
same,IC50,[7],34.6 µM (active)
same,IC50,[8],40.6 µM (active)
same,IC50,[2],82.7 µM (active)
same,EC50,[9],1.93 µM (active)
O=c1c(-c2ccc(Cl)cc2)nc2cnc(N3CCOCC3)nc2n1-c1ccccc1,AC50,[3],inconclusive
same,AC50,[10],2 µM (inconclusive)
CCN1CCN(c2ccc(S(=O)(=O)N3CCCCC3)cc2NC(=O)c2ccc([N+](=O)[O-])o2)CC1,IC50,[11],12.8 µM (active)
same,EC50,[12],741 nM (active)
same,CC50,[13],16.7 µM (active)
same,AC50,[14],3.27 µM (active)
same,CC50,[15],19.1 µM (active)
same,EC50,[16],23.8 µM (active)
COC(=O)C1=C(C)N(Cc2ccccc2)C2=C3C(=O)N(c4ccccc4)C(=O)C3[C@@](O)(C(=O)OC)C(=O)N2C1c1ccccc1 (stereo not given in full),AC50,[17],3.98 µM (inconclusive) and 3.16 µM (inconclusive)
Cc1nc2ccccc2c(=O)n1NC(=O)c1ccco1,IC50,[2],70.7 µM (active)
CCCCCCc1ccc(-c2ccc(C#N)cc2)cc1,AC50,[1],6.31 µM (inconclusive)
O=S(=O)(NC1CCCCC1)c1ccc(Cl)s1,AC50,[18],115 µM (active)
N=C1N=C(N)c2cc3ccccc3cc21,AC50,[1],28.2 µM (inconclusive)
C=CCn1c(NC(=O)c2ccccc2)nc2ccccc21,IC50,[11],0.68 µM (active)
same,CC50,[13],17.7 µM (active)
CC(Oc1ccc2c(-c3ccccc3)cc(=O)oc2c1)C(=O)NCCCN1CCOCC1 (stereo not given),AC50,[18],62.1 µM (active)
COC(=O)N1[C@H](C)C=C[C@]1(Cc1ccccc1)C(=O)NCc1ccc(N(C)C)cc1,AC50,[17],1 µM (inconclusive)
O=C(Nc1ccc(Cl)cc1C(=O)O)c1ccc2c(c1)C(=O)N(Cc1ccco1)C2=O,IC50,[8],46.3 µM (active)
same,IC50,[2],137 µM (active)
N#C/C(=C\c1ccc(OCc2ccc(C(=O)O)cc2)cc1)C(=O)N1CCOCC1,IC50,[19],> 80 µM (inactive)
same,AC50,[20],1.19 µM (active)
Cc1ccc(NC(=O)C2CCN(S(=O)(=O)c3c(C)n[nH]c3C)CC2)nc1,AC50,[3],inconclusive
same,AC50,[5],39.8 µM (inconclusive)
O=c1c2cccnc2[nH]c(=S)n1CCCN1CCN(c2ccccc2F)CC1,IC50,[21],24.6 µM (active)
CCOC(=O)c1c(N/C=C(\C#N)c2nc(-c3ccc(OC(C)=O)cc3)cs2)sc2c1CCC2,AC50,[18],12.3 µM (active)
C=CCNc1ccccc1S(=O)(=O)NCc1ccccc1,AC50,[18],> 150 µM (inactive)
CCc1ccc(OCC(=O)N/N=C/c2cc([N+](=O)[O-])ccc2N2CCOCC2)cc1,IC50,[22],> 80 µM (inactive)
same,CC50,[23],> 50 µM (active)
O=c1onc2n1-c1cc(Br)ccc1OC2,AC50,[4],20 µM (inconclusive)
same,AC50,[1],5.62 µM (inconclusive)
"COc1ccc(C(=O)c2ccc(O)cc2)c(O)c1O [2,3,4'-TRIHYDROXY-4-METHOXYBENZOPHENONE]",AC50,[17],25.1 µM (inconclusive)
O=C(O)/C=C/c1ccc(O)c(O)c1 [CAFFEIC ACID],AC50,[1],2.51 µM (inconclusive)
same,AC50,[17],25.1 µM (inconclusive)
same,IC50,[24],7.3 µM (active)
